Measurements as given in the supplement of paper PMC8617591.

How the values were obtained:
[1] = system: Mycobacterium tuberculosis Erdman (autoluminescent); test: FIC90 (Loewe) at 90% inhibition (log2); higher = more antagonistic
Description: (§1)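 DiaMOND equipotent two-drug combination dose responses against autoluminescent M. tuberculosis Erdman in 8 in vitro models. Read-out is OD600, or luminescence for the intracellular and dormancy models, normalised to untreated wells. Hill-fit Einf, AUC25 and GRinf are potency metrics; FIC50 and FIC90 are Loewe-additivity fractional inhibitory concentrations, given as log2 (negative = synergy). Replicates are averaged.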

[2] = system: Mycobacterium tuberculosis Erdman (autoluminescent); test: FIC50 (Loewe) at 50% inhibition (log2); higher = more antagonistic
Description: as §1

[3] = system: Mycobacterium tuberculosis Erdman (autoluminescent); test: Einf, fitted maximum growth inhibition of combination (fraction); higher = stronger maximal inhibition
Description: as §1

[4] = system: Mycobacterium tuberculosis Erdman (autoluminescent); test: AUC25, normalised area under dose response up to IC25 (fraction (0-1)); higher = more potent at low dose
Description: as §1

[5] = system: Mycobacterium tuberculosis Erdman (autoluminescent); test: GRinf, maximum normalised growth rate inhibition (unitless (-1 to 1)); higher = less effect (negative = killing)
Description: as §1

NNC(=O)c1ccncc1 [isoniazid] + CC(=O)NC[C@H]1CN(c2ccc(N3CCOCC3)c(F)c2)C(=O)O1 [linezolid]
Conditions	AUC25, [4]	Einf, [3]	FIC50, [2]	FIC90, [1]	GRinf, [5]
in vitro model: acidic pH 5.7, time point: constant (~7 days, model-specific)	0.0979	0.795	0.0411	–	-0.178
in vitro model: acidic pH 5.7, time point: terminal (~4-5 doublings, model-specific)	0.0773	0.963	0.877	0.0348	-0.173
in vitro model: intracellular J774, time point: constant = terminal	–	0.915	–	0.155	-0.0635

Conditions	AUC25, [4]	Einf, [3]	FIC50, [2]	FIC90, [1]	GRinf, [5]
in vitro model: butyrate, time point: constant (~7 days, model-specific)	0.0801	0.917	0.754	0.923	0.00442
in vitro model: butyrate, time point: terminal (~4-5 doublings, model-specific)	0.0539	0.959	0.657	0.547	0.0109
in vitro model: cholesterol 0.05 mM, time point: constant (~7 days, model-specific)	0.129	0.677	0.121	–	-0.0433
in vitro model: cholesterol 0.05 mM, time point: terminal (~4-5 doublings, model-specific)	0.14	0.945	4.49	-0.681	-0.23
in vitro model: cholesterol-high 0.2 mM, time point: constant (~7 days, model-specific)	0.127	0.928	-0.123	0.0406	-0.371
in vitro model: cholesterol-high 0.2 mM, time point: terminal (~4-5 doublings, model-specific)	0.119	1	-0.0744	0.498	-0.893
in vitro model: dormancy (butyrate + nitrate, low O2), time point: constant (~7 days, model-specific)	0.0528	0.912	1.45	0.856	0.109
in vitro model: dormancy (butyrate + nitrate, low O2), time point: terminal (~4-5 doublings, model-specific)	0.0354	0.989	1.06	0.558	0.00877
in vitro model: standard 7H9 glycerol, time point: constant = terminal	0.0758	0.909	0.116	0.045	0.137
in vitro model: valerate, time point: constant (~7 days, model-specific)	0.0661	0.818	0.548	–	0.0896
in vitro model: valerate, time point: terminal (~4-5 doublings, model-specific)	0.0441	0.916	0.612	0.861	0.0931

NNC(=O)c1ccncc1 [isoniazid] + CO[C@H]1/C=C/O[C@@]2(C)Oc3c(C)c(O)c4c(O)c(c(/C=N/N5CCN(C6CCCC6)CC5)c(O)c4c3C2=O)NC(=O)/C(C)=C\C=C\[C@H](C)[C@H](O)[C@@H](C)[C@@H](O)[C@@H](C)[C@H](OC(C)=O)[C@@H]1C [rifapentine]
Conditions	AUC25, [4]	Einf, [3]	FIC50, [2]	FIC90, [1]	GRinf, [5]
in vitro model: acidic pH 5.7, time point: constant (~7 days, model-specific)	0.0483	0.894	0.277	–	-0.237
in vitro model: acidic pH 5.7, time point: terminal (~4-5 doublings, model-specific)	0.0378	0.987	0.368	0.117	-0.277
in vitro model: intracellular J774, time point: constant = terminal	–	0.935	–	-0.279	-0.145

Conditions	AUC25, [4]	Einf, [3]	FIC50, [2]	FIC90, [1]	GRinf, [5]
in vitro model: butyrate, time point: constant (~7 days, model-specific)	0.0724	0.903	0.471	-0.186	0.0346
in vitro model: butyrate, time point: terminal (~4-5 doublings, model-specific)	0.0522	0.951	0.425	0.159	0.0382
in vitro model: cholesterol 0.05 mM, time point: constant (~7 days, model-specific)	0.0889	0.673	0.00942	–	-0.0811
in vitro model: cholesterol 0.05 mM, time point: terminal (~4-5 doublings, model-specific)	0.0939	0.917	0.122	1.12	-0.127
in vitro model: cholesterol-high 0.2 mM, time point: constant (~7 days, model-specific)	0.0721	0.937	0.338	–	-0.348
in vitro model: cholesterol-high 0.2 mM, time point: terminal (~4-5 doublings, model-specific)	0.0611	0.998	0.562	0.57	-0.717
in vitro model: dormancy (butyrate + nitrate, low O2), time point: constant (~7 days, model-specific)	0.0529	0.926	0.188	-0.294	0.144
in vitro model: dormancy (butyrate + nitrate, low O2), time point: terminal (~4-5 doublings, model-specific)	0.0384	0.985	-0.00795	-0.177	-0.174
in vitro model: standard 7H9 glycerol, time point: constant = terminal	0.0391	0.905	0.622	0.354	0.117
in vitro model: valerate, time point: constant (~7 days, model-specific)	0.034	0.752	0.888	–	0.146
in vitro model: valerate, time point: terminal (~4-5 doublings, model-specific)	0.0276	0.928	1	1.18	-0.00496
